According to PubChem BioAssay (NCI):
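96-well plates; 48 h exposure; 5 concentrations. Endpoints by linear interpolation between flanking doses. Not reached: highest tested concentration assigned. TGI marks complete inhibition of growth.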

Tests used:
Assay in all cases: inhibition of tumour cell growth, NCI panel, 48 h
MOLT-4 leukemia = test system: MOLT-4 leukemia
HOP-62 NSCLC = test system: HOP-62 NSCLC
SNB-19 CNS = test system: SNB-19 CNS
A498 renal = test system: A498 renal
IGROV1 ovarian = test system: IGROV1 ovarian
NCI/ADR-RES ovarian = test system: NCI/ADR-RES ovarian
HS 578T breast = test system: HS 578T breast
OVCAR-5 ovarian = test system: OVCAR-5 ovarian
U251 CNS = test system: U251 CNS
PC-3 prostate = test system: PC-3 prostate
NCI-H460 lung = test system: NCI-H460 lung
SK-MEL-2 melanoma = test system: SK-MEL-2 melanoma
KM12 colon = test system: KM12 colon
SF-539 CNS = test system: SF-539 CNS
ACHN renal = test system: ACHN renal
SR leukemia = test system: SR leukemia
BT-549 breast = test system: BT-549 breast
NCI-H226 lung = test system: NCI-H226 lung
HCC-2998 colon = test system: HCC-2998 colon
HOP-92 NSCLC = test system: HOP-92 NSCLC
MDA-MB-231 breast = test system: MDA-MB-231 breast
SF-295 CNS = test system: SF-295 CNS
HCT-15 colon = test system: HCT-15 colon
786-0 renal = test system: 786-0 renal
OVCAR-4 ovarian = test system: OVCAR-4 ovarian
CAKI-1 renal = test system: CAKI-1 renal
K-562 leukemia = test system: K-562 leukemia
SK-OV-3 ovarian = test system: SK-OV-3 ovarian
MDA-MB-435 = test system: MDA-MB-435
COLO 205 colon = test system: COLO 205 colon
CCRF-CEM leukemia = test system: CCRF-CEM leukemia
UO-31 renal = test system: UO-31 renal
RXF 393 renal = test system: RXF 393 renal
A549 NSCLC = test system: A549 NSCLC
SK-MEL-5 melanoma = test system: SK-MEL-5 melanoma
OVCAR-8 ovarian = test system: OVCAR-8 ovarian
MDA-N = test system: MDA-N
T-47D breast = test system: T-47D breast
NCI-H522 lung = test system: NCI-H522 lung
UACC-257 melanoma = test system: UACC-257 melanoma
UACC-62 melanoma = test system: UACC-62 melanoma
SF-268 CNS = test system: SF-268 CNS
MCF7 breast = test system: MCF7 breast
HCT-116 colon = test system: HCT-116 colon
SN12C renal = test system: SN12C renal
LOX IMVI melanoma = test system: LOX IMVI melanoma
MALME-3M melanoma = test system: MALME-3M melanoma
DU-145 prostate = test system: DU-145 prostate
SK-MEL-28 melanoma = test system: SK-MEL-28 melanoma
M14 melanoma = test system: M14 melanoma
OVCAR-3 ovarian = test system: OVCAR-3 ovarian
EKVX NSCLC = test system: EKVX NSCLC
TK-10 renal = test system: TK-10 renal
SNB-75 CNS = test system: SNB-75 CNS
SW-620 colon = test system: SW-620 colon
HL-60(TB) leukemia = test system: HL-60(TB) leukemia
NCI-H23 lung = test system: NCI-H23 lung
HT29 colon = test system: HT29 colon
RPMI-8226 leukemia = test system: RPMI-8226 leukemia

With `c1ccc2c3c(c(N4CCOCC4)nc2c1)CCCC3` as the compound, how does the TGI (MOLT-4 leukemia) read?
The TGI was over 100 µM.

What about the TGI (HOP-62 NSCLC) of the same compound?
Its TGI is over 100 µM.

What about the TGI (SNB-19 CNS) of the same compound?
The TGI was over 100 µM.

And the TGI (A498 renal)?
The TGI was 81.6 µM.

And the TGI (IGROV1 ovarian)?
The TGI was over 100 µM.

And the TGI (NCI/ADR-RES ovarian)?
The TGI was over 100 µM.

What about the TGI (HS 578T breast) of the same compound?
The TGI was over 100 µM.

And the TGI (OVCAR-5 ovarian)?
The TGI was 81.2 µM.

What about the TGI (U251 CNS) of the same compound?
Its TGI is over 100 µM.

What about the TGI (PC-3 prostate) of the same compound?
The TGI was over 100 µM.

What about the TGI (NCI-H460 lung) of the same compound?
The TGI was over 100 µM.

What about the TGI (SK-MEL-2 melanoma) of the same compound?
The TGI was over 100 µM.

What about the TGI (KM12 colon) of the same compound?
Its TGI is over 100 µM.

What about the TGI (SF-539 CNS) of the same compound?
Its TGI is 61.4 µM.

What about the TGI (ACHN renal) of the same compound?
Its TGI is over 100 µM.

And the TGI (SR leukemia)?
The TGI was over 100 µM.

And the TGI (BT-549 breast)?
Its TGI is over 100 µM.

And the TGI (NCI-H226 lung)?
The TGI was 68.1 µM.

What about the TGI (HCC-2998 colon) of the same compound?
The TGI was over 100 µM.

And the TGI (HOP-92 NSCLC)?
Its TGI is over 100 µM.

And the TGI (MDA-MB-231 breast)?
Its TGI is over 100 µM.

And the TGI (SF-295 CNS)?
Its TGI is over 100 µM.

And the TGI (HCT-15 colon)?
Its TGI is over 100 µM.

And the TGI (786-0 renal)?
The TGI was 92.9 µM.

And the TGI (OVCAR-4 ovarian)?
Its TGI is over 100 µM.

What about the TGI (CAKI-1 renal) of the same compound?
The TGI was over 100 µM.

And the TGI (K-562 leukemia)?
Its TGI is over 100 µM.

What about the TGI (SK-OV-3 ovarian) of the same compound?
The TGI was over 100 µM.

And the TGI (MDA-MB-435)?
The TGI was over 100 µM.

What about the TGI (COLO 205 colon) of the same compound?
Its TGI is 46.5 µM.

What about the TGI (CCRF-CEM leukemia) of the same compound?
The TGI was over 100 µM.

And the TGI (UO-31 renal)?
The TGI was over 100 µM.

And the TGI (RXF 393 renal)?
Its TGI is 46.8 µM.

And the TGI (A549 NSCLC)?
The TGI was over 100 µM.

What about the TGI (SK-MEL-5 melanoma) of the same compound?
The TGI was 54.7 µM.

What about the TGI (OVCAR-8 ovarian) of the same compound?
Its TGI is over 100 µM.

What about the TGI (MDA-N) of the same compound?
The TGI was over 100 µM.

What about the TGI (T-47D breast) of the same compound?
Its TGI is 72.8 µM.

And the TGI (NCI-H522 lung)?
The TGI was over 100 µM.

And the TGI (UACC-257 melanoma)?
Its TGI is over 100 µM.

What about the TGI (UACC-62 melanoma) of the same compound?
The TGI was over 100 µM.

And the TGI (SF-268 CNS)?
Its TGI is over 100 µM.

And the TGI (MCF7 breast)?
Its TGI is over 100 µM.

What about the TGI (HCT-116 colon) of the same compound?
The TGI was over 100 µM.

What about the TGI (SN12C renal) of the same compound?
Its TGI is over 100 µM.

And the TGI (LOX IMVI melanoma)?
The TGI was over 100 µM.

And the TGI (MALME-3M melanoma)?
The TGI was over 100 µM.

What about the TGI (DU-145 prostate) of the same compound?
Its TGI is over 100 µM.

What about the TGI (SK-MEL-28 melanoma) of the same compound?
The TGI was over 100 µM.

What about the TGI (M14 melanoma) of the same compound?
Its TGI is over 100 µM.

What about the TGI (OVCAR-3 ovarian) of the same compound?
Its TGI is over 100 µM.

What about the TGI (EKVX NSCLC) of the same compound?
The TGI was 63.8 µM.

And the TGI (TK-10 renal)?
Its TGI is over 100 µM.

And the TGI (SNB-75 CNS)?
The TGI was 83.1 µM.

What about the TGI (SW-620 colon) of the same compound?
The TGI was over 100 µM.

And the TGI (HL-60(TB) leukemia)?
The TGI was 69.3 µM.

What about the TGI (NCI-H23 lung) of the same compound?
The TGI was over 100 µM.

And the TGI (HT29 colon)?
The TGI was over 100 µM.

What does the source list for `COCc1nc2c(OC)cc(-c3nc4ccc(N5CCN(C)CC5)cc4[nH]3)c(OC)c2[nH]1`?
TGI (MOLT-4 leukemia): > 100 µM; TGI (HOP-62 NSCLC): > 100 µM; TGI (SNB-19 CNS): > 100 µM; TGI (A498 renal): > 100 µM; TGI (IGROV1 ovarian): > 100 µM; TGI (NCI/ADR-RES ovarian): > 100 µM; TGI (HS 578T breast): > 100 µM; TGI (OVCAR-5 ovarian): > 100 µM; TGI (U251 CNS): > 100 µM; TGI (PC-3 prostate): > 100 µM; TGI (NCI-H460 lung): > 100 µM; TGI (SK-MEL-2 melanoma): 76.3 µM; TGI (KM12 colon): > 100 µM; TGI (SF-539 CNS): 44.6 µM; TGI (ACHN renal): > 100 µM; TGI (SR leukemia): 54.6 µM; TGI (BT-549 breast): > 100 µM; TGI (NCI-H226 lung): > 100 µM; TGI (HOP-92 NSCLC): > 100 µM; TGI (MDA-MB-231 breast): > 100 µM; TGI (SF-295 CNS): 47.2 µM; TGI (HCT-15 colon): > 100 µM; TGI (786-0 renal): > 100 µM; TGI (OVCAR-4 ovarian): > 100 µM; TGI (CAKI-1 renal): > 100 µM; TGI (K-562 leukemia): > 100 µM; TGI (SK-OV-3 ovarian): > 100 µM; TGI (MDA-MB-435): > 100 µM; TGI (COLO 205 colon): 77 µM; TGI (CCRF-CEM leukemia): > 100 µM; TGI (UO-31 renal): > 100 µM; TGI (RXF 393 renal): 51.9 µM; TGI (A549 NSCLC): > 100 µM; TGI (SK-MEL-5 melanoma): 53.2 µM; TGI (OVCAR-8 ovarian): > 100 µM; TGI (MDA-N): > 100 µM; TGI (RPMI-8226 leukemia): > 100 µM; TGI (T-47D breast): > 100 µM; TGI (NCI-H522 lung): > 100 µM; TGI (UACC-257 melanoma): 34.6 µM; TGI (UACC-62 melanoma): > 100 µM; TGI (SF-268 CNS): > 100 µM; TGI (MCF7 breast): > 100 µM; TGI (HCT-116 colon): > 100 µM; TGI (SN12C renal): > 100 µM; TGI (LOX IMVI melanoma): 34.8 µM; TGI (MALME-3M melanoma): 31.6 µM; TGI (DU-145 prostate): > 100 µM; TGI (SK-MEL-28 melanoma): > 100 µM; TGI (M14 melanoma): 31.9 µM; TGI (OVCAR-3 ovarian): 77.5 µM; TGI (EKVX NSCLC): > 100 µM; TGI (TK-10 renal): > 100 µM; TGI (SNB-75 CNS): > 100 µM; TGI (SW-620 colon): > 100 µM; TGI (HL-60(TB) leukemia): > 100 µM; TGI (NCI-H23 lung): > 100 µM; TGI (HT29 colon): > 100 µM
